We go through eleven compounds from patent US10017535B2, “Amphiphilic compounds with neuroprotective properties” (USTAV ORGANICKE CHEMIE A BIOCHEMIE AV CR, v.v.i., priority 2014, dated 2018).

Like-named read-outs stand apart in the source and are kept apart here.

In the experiment the target is T1, NR1-1a/NR2B NMDA receptor (Rattus norvegicus, UniProt P35439+Q00960).
T1 construct: expressed in transfected cells; host or cells: HEK293 cells (ATCC CRL1573)
The experiment is described as follows: Patch-clamp inhibition of glutamate-evoked currents at recombinant NMDA receptors in transfected HEK293 cells. As to conditions: for IC50: calculated from relative steroid-induced inhibition, Hill's coefficient 1.2, read-out: IC50. Format: cell-based. The procedure: Transfected cells were identified by means of fluorescent green protein (GFP) fluorescence. Its genus was transfected together with the both receptor subunit genes.
Steroid-containing solutions were prepared from fresh solution (20 mmol·l^−1, of steroid dissolved in dimethyl sulfoxide, DMSO), which was added to the extracellular solution containing 1 mmol·l^−1 glutamic acid and 10 μmol·l^−1 of glycine. Identical concentrations of DMSO were added to all other extracellular solutions.
Current responses produced by extracellular application of glutamic acid solution (1 mmol·l^−1) were measured from the whole cell by patch-clamp technique, which is used for the study of transport of charged particles through model and also natural biological membranes. The currents were measured at membrane potential maintained at −60 mV and +60 mV.
Same amounts (0.3 μg) of cDNA coding NR1, NR2 and GFP (green fluorescent protein) (pQBI 25, Takara, Japan) were mixed with 0.9 μl of Matra-A Reagent (IBA, Göttingen, Germany) and added to confluent HEK293 cells cultivated in v 24-pit cultivating plate. After trypsination, the cells were re-suspended in Opti-MEM® I containing 1% fetal bovine serum. Subsequently, 20 mmol·l^−1 MgCl2, 1 mmol l^−1 D,L-2-amino-5-phosphonopentanoic acid, 3 mmol·l^−1 kynurenic acid was added to the mixture and cells were inoculated on the polylysine-coated glass plates having 25 mm in diameter. The following genes coding NMDA receptor subunits were used for transfection: NR1-1 a (GenBank accession No. U08261) and NR2B (GenBank accession No. M91562).
HEK293 Cultured cells were used for electrophysiological investigations with a latency of 16-40 h after transfection. Whole-cell currents were measured by patch-clamp amplifier (Axopatch 1D; Axon Instruments, Inc. Foster City, USA) after capacitance and serial resistance (<10 MΩ) compensation to 80-90%. Agonist-induced responses were filtered to 1 kHz (8-pole Bessel filter; Frequency Devices, Haverhill, USA), digitized with sampling frequency of 5 kHz and analyzed by pClamp version 9 software (Axon Instruments, USA). […] Extracellular solution (ECS) contained 160 mmol·l^−1 sodium chloride, 2.5 mmol·l^−1 potassium chloride, 10 mmol·l^−1 HEPES, 10 mmol·l^−1 glucose, 0.2 mmol·l^−1 EDTA a 0.7 mmol·l^−1 calcium chloride (pH adjusted to 7.3 by sodium hydroxide solution). Glycine was added to both testing and control solution. Moreover, bicuculline (10 μmol·l^−1) and tetrodotoxin (0.5 μmol·l^−1) was added to hippocampal cultures. Steroid-containing solutions were prepared from fresh solution (20 mmol·l^−1) of steroid dissolved in dimethyl sulfoxide (DMSO). Same concentrations of DMSO were used in all extracellular solutions. Control and experimental solutions were applied via microprocessor-controlled perfusion system with approx. rate of solution exchange in areas adjacent to cells reaching ˜10 ms.
Current responses produced by 100 μmol·l^−1 of NMDA (in the case of hipocampal neurones), or by 1 mmol·l^−1 of glutamate (on recombinant NMDA receptors) were measured at membrane potential maintained at −60 mV. […] Relative effect of steroid-induced inhibition was used for calculating IC50.

The mark [1] stands for this setting: HEK293, read-out: Mean % change ± SD.
Setting [2] is: HEK293, steroid concentration 50 μmol·l^−1, 1 mmol·l^−1 glutamate, −60 mV, read-out: Mean % change ± SD.
Setting [3] is: steroid concentration 10 μmol·l^−1, 1 mmol·l^−1 glutamate, −60 mV.
The mark [4] stands for this setting: steroid concentration 3 μmol·l^−1, 1 mmol·l^−1 glutamate, −60 mV.

T1 sequence (Q00960 27-1482, other chains not shown): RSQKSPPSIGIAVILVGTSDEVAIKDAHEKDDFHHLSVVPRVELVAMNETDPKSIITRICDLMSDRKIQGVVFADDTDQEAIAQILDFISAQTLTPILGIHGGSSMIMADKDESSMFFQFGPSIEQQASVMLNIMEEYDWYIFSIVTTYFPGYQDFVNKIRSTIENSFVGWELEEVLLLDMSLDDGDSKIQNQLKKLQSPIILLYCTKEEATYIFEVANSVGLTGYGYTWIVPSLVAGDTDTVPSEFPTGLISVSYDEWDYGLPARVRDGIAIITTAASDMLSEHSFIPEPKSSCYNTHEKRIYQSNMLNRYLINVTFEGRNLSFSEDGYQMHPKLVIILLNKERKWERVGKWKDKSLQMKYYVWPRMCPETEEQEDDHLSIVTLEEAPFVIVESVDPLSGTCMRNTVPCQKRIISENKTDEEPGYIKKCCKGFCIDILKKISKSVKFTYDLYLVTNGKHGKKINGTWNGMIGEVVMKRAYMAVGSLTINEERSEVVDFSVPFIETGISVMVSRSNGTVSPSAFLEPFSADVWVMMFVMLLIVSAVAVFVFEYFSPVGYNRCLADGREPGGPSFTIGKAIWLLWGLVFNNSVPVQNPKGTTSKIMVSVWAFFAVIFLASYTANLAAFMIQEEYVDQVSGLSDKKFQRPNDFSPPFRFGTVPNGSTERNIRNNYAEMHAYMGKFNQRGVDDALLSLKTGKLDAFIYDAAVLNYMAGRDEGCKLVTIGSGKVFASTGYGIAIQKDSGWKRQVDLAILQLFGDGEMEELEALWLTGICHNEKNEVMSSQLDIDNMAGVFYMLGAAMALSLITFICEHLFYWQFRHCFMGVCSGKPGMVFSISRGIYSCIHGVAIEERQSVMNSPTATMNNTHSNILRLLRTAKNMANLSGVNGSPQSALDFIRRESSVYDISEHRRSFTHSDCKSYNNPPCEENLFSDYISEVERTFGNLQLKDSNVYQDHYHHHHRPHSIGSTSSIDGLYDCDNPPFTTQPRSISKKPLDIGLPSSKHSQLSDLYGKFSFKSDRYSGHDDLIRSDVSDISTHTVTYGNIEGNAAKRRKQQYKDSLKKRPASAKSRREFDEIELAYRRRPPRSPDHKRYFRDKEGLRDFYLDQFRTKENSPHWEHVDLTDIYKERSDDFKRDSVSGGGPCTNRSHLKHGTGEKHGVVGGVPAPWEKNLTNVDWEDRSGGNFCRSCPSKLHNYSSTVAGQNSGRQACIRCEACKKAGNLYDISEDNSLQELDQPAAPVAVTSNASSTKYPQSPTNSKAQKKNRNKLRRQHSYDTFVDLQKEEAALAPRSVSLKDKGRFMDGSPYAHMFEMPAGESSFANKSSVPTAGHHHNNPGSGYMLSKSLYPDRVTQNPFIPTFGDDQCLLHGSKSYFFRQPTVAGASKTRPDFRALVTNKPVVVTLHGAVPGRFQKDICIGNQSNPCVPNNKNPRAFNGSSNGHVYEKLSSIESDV

As for `C[C@@]12CCC[C@H]1[C@@H]1CC[C@@H]3C[C@H](OC(=O)CCC[N+](C)(C)C)CC[C@]3(C)[C@H]1CC2` [Compound 62, 4-(((3R,5R,8S,9S,10S,13S,14S)-10,13-Dimethylhexadecahydro-1H-cyclopenta[a]-phenanthren-3-yl)oxy)-N,N,N-trimethyl-4-oxobutan-1-ammonium chloride], the IC50 was 1.7 µM. For the same compound, under setting [1], the inhibition at 1 µM is 34 ± 5%.
Regarding `COC[C@@]1(C)CC[C@H]2[C@@H](CC[C@@H]3C[C@H](OS(=O)(=O)O)CC[C@@]32C)[C@@H]1C` [Compound 18, Pyridinium (2R,4aS,4bS,7S,8S,8aS,10aR)-7-(methoxymethyl)-4a,7,8-trimethyltetra-decahydrophenanthren-2-yl 2-sulfate], the half-inhibitory concentration (IC50) was 33 µM. Moreover, the inhibition at 50 µM under setting [2] was 60.5 ± 4.6%.
For `C/C=C1/CC[C@H]2[C@@H]3CC[C@@H]4C[C@H](OC(=O)CCCC(=O)O)CC[C@]4(C)[C@H]3CC[C@]12C` [Compound 85, 5-(((3R,5R,8R,9S,10S,13S,14S,Z)-17-Ethylidene-10,13-dimethylhexadecahydro-1H-cyclopenta[a]phenanthren-3-yl)oxy)-5-oxopentanoic acid], the half-inhibitory concentration (IC50) was 38.4 µM. Besides, under setting [1], the inhibition at 50 µM came to 59.4 ± 7.8%.
For `CC12CCCCC1C1CCC3CC(OS(=O)(=O)O)CCC3(C)C1CC2` [Compound 101, Pyridinium (2R,4aS,4bS,6aS,10bS,6aS,12aR)-4a,6a-dimethyloctadecahydrochrysen-2-yl 2-sulfate], the concentration for half-maximal inhibition (IC50) was 2.3 µM. Further, the inhibition at 5 µM (HEK293, steroid concentration 5 μmol·l^−1, 1 mmol·l^−1 glutamate, −60 mV, read-out: Mean % change ± SD) is 69.1 ± 5.9%.
“Pyridinium (3R,5R,8R,9R,10S,13S,14S)-13-methylhexadecahydro-1H-cyclopenta[a]phenanthren-3-yl 3-sulfate [Compound 126]”: the concentration for half-maximal inhibition (IC50) is 5.4 µM. Also, the “Mean % change ± SD” value under setting [3] came to 68.3 ± 7.4%.
On to “Pyridinium (3R,5R,8S,9S,10S,13S,14R,17R)-10,17-dimethylhexadecahydro-1H-cyclopenta[a]phenanthren-3-yl 3-sulfate [Compound 118]”, for which the half-maximal inhibitory concentration (IC50) was 1.5 µM. Also, the “Mean % change ± SD” value under setting [4] is on record as 68.0 ± 7.8%.
In the case of `C[C@@]12CCC[C@H]1[C@@H]1CC[C@@H]3C[C@H](OS(=O)(=O)O)CC[C@]3(C)[C@H]1CC2.c1ccncc1` [Compound 49, Pyridinium (3R,5R,8S,9S,10S,13S,14S)-10,13-dimethylhexadecahydro-1H-cyclopenta[a]phenanthren-3-yl 3-sulfate], the IC50 is 2.1 µM. For the same compound, the “Mean % change ± SD” value (steroid concentration 2 μmol·l^−1, 1 mmol·l^−1 glutamate, −60 mV) stood at 49.2 ± 6.6%.
Consider `C[C@@H]1CC[C@H]2[C@@H](CC[C@@H]3C[C@H](OS(=O)(=O)O)CC[C@@]32C)C1` [Compound 35, Pyridinium (2R,4aS,4bS,7R,8aS,10aR)-4a,7-dimethyltetradecahydrophenanthren-2-yl 2-sulfate], for which the IC50 was 12 µM. Under setting [2], the inhibition at 50 µM was 85 ± 1.2%.
As to `C[C@@]12CCC[C@H]1[C@@H]1CC[C@@H]3C[C@H](OC(=O)C(=O)O)CC[C@]3(C)[C@H]1CC2` [Compound 50, 2-(((3R,5R,8S,9S,10S,13S,14S)-10,13-Dimethylhexadecahydro-1H-cyclopenta[a]phenanthren-3-yl)oxy)-2-oxoethanoic acid], the half-inhibitory concentration (IC50) was 6.3 µM. For the same compound, the inhibition at 10 µM under setting [1] was 64 ± 7%.
Take “Pyridinium (3R,5R,8R,9S,10S,13R,14S,17R)-17-((R)-sec-butyl)-10,13-dimethylhexadecahydro-1H-cyclopenta[a]phenanthren-3-yl 3-sulfate [Compound 123]”: the half-inhibitory concentration (IC50) is 11.7 µM. In addition, the “Mean % change ± SD” value under setting [3] is reported as 46.2 ± 2.3%.
With “Pyridinium (3R,5R,8S,9S,10S,13R,14R,17S)-10,17-dimethylhexadecahydro-1H-cyclopenta[a]phenanthren-3-yl 3-sulfate [Compound 119]”, the half-inhibitory concentration (IC50) was 0.7 µM. Further, the “Mean % change ± SD” value under setting [4] is 81.1 ± 2.1%.
